Experimental data reported in patent publication US20080161307A1, “Organic Compounds” (priority 2005, published 2008).

Tested on: healthy male volunteers
Assay: Randomized, double-blind, placebo-controlled gastric emptying study (99Tc radiolabeled meal, external scintigraphy)
Assay type: in vivo, human
Protocol: Methodology: This is a single center, double-blind, randomized, parallel group trial using a placebo control or tegaserod 6 mg t.i.d. in combination with omeprazole 20 mg b.i.d. Gastric emptying is assessed using a standardized method that has been previously validated and found to be sensitive and specific. After an overnight fast, the subjects are asked to ingest a standardized ^99Tc radiolabeled meal (250 ml EggBeater, the equivalent of two eggs, two slices of white bread, 30 cc of strawberry jam and 120 ml of water). The level of radioactivity in gastric contents is measured by external scintigraphy immediately following completion of the meal and then at 60, 120 and 240 minutes after the end of the meal.
Number of subjects: 40 healthy male volunteers (20 per group)
Investigational drug: Tegaserod 6 mg tablets (supplied by Novartis Canada, but are normal 6 mg Zelnorm tablet obtainable as prescription) for oral administration. Each dose consists of a tablet to be taken with a glass of water within 15-30 minutes before mealtime three times daily. […]
Efficacy: The primary efficacy parameter is time to half emptying (T1/2) of gastric contents. The secondary efficacy endpoints were the calculated lag phase, and percent of gastric contents remaining in the stomach at 60, 120 and 240 minutes after ingestion of a standard meal. […]

Compound: CCCCCNC(=N)N/N=C/c1c[nH]c2ccc(OC)cc12 [tegaserod, 3-(5-methoxy-1H-indol-3-yl-methylene)-N-pentylcarbazimidamide]
- gastric emptying at all the studied time points versus baseline (tegaserod 6 mg t.i.d. in combination with omeprazole 20 mg b.i.d., oral, 14 days): not statistically different from the respective baseline values
- development of delayed gastric emptying caused by omeprazole (tegaserod added to omeprazole, healthy male volunteers): prevented development of delayed gastric emptying
